Test results reported in patent US12037344B2, “NLRP3 modulators” (INNATE TUMOR IMMUNITY, INC., priority 2018, dated 2024).
pEC50: −log10 of the molar value. Where two headings read alike, the source gives them in different places.

Assays:
[1] = target: T1, TLR7 (Homo sapiens, UniProt Q9NYK1); experiment: In vitro human TLR7 binding reporter assay (HEK-Blue, NF-kB/AP1-inducible SEAP); type: cell-based; details: read-out: TLR7 Agonist EC50
T1 construct: human HEK-Blue cells co-expressing a TLR7 or TLR8 gene
T1 sequence (Q9NYK1 27-1049): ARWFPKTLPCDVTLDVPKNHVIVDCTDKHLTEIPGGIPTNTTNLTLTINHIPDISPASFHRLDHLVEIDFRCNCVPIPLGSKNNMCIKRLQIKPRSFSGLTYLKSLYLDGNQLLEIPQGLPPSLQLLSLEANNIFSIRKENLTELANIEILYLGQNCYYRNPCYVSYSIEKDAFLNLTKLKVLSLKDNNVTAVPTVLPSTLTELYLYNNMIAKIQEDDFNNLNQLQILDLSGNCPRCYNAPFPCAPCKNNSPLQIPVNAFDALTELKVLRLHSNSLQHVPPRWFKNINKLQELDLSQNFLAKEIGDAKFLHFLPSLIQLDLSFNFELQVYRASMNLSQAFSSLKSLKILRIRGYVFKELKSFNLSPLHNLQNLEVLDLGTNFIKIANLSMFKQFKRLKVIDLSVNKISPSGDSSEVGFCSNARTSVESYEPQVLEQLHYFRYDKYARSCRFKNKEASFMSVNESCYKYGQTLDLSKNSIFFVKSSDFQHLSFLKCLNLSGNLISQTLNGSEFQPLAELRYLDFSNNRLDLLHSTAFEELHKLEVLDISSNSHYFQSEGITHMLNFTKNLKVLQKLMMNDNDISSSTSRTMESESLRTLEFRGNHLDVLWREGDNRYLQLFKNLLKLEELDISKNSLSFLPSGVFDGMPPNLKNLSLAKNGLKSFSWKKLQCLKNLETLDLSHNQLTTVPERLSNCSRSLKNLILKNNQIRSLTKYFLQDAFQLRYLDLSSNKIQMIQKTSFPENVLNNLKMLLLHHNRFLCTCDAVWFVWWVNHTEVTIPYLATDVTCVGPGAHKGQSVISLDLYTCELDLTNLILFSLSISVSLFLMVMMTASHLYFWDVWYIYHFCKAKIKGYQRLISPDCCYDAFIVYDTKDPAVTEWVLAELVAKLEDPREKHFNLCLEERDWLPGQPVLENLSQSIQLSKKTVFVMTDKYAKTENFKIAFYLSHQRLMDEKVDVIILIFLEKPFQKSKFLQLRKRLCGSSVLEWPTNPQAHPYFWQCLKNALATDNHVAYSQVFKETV
Protocol: (§1) In Vitro Human TLR7 and TLR8 Binding Reporter Assays
(§2) Logarithmically-growing human HEK-Blue cells co-expressing a TLR7 or TLR8 gene and a NF-kB/AP1-inducible SEAP (secreted embryonic alkaline phosphatase; Invivogen, San Diego, CA) reporter gene are added to individual wells of a 384-well plate (15,000 cells per 20 μL per well) and maintained for 24 h at 37° C., 5% CO2. Test compounds or DMSO are distributed to separate wells the next day using acoustic liquid handling technology (100 nL per well) and cells are subsequently incubated for 18 h at 37° C., 5% CO2. Cellular SEAP production is measured using an Envision plate reader instrument thirty minutes after adding freshly-made Quanti-Blue reagent (prepared by following manufacturer instructions; Invivogen, San Diego, CA) to the HEK-Blue TLR Nf-kB-SEAP cell reactions. All EC50 values (half-maximal effective concentration) are determined using proprietary data analysis software. Normalized EC50 value=absolute value determined by setting 100% Ymax using a reference standard RLU (relative light unit) values from cells treated with 50 μM of the reference standard.

[2] = system: THP-1 cells; experiment: Measurement of IL-1β production, hTRF protocol (second alternative procedure), THP-1 cells; type: cell-based, human; details: read-out: NLRP3 hILIB EC50
Protocol: Measurement of IL-1β Production—hTRF Protocol (Second Alternative Procedure)
Serial dilutions of compounds in DMSO were added to low volume 384 well plates at 100 nl/well using an ECHO 550 acoustic dispenser (Labcyte) to achieve final starting concentration of 10 μM in assay.
THP-1 cells in RPMI (Gibco, 11875) media with 10% FBS at a density of 1×10^6 cell/ml in a T175 flask were treated with a final concentration of phorbol 12-myristate 13-acetate (PMA) (Sigma, P1585) of 50 ng/ml overnight at 37° C. at 5% CO2 for differentiation. Cells were harvested the next day after rinsing well with dPBS using 0.5% trypsin. A cell solution was prepared of 1×10^6 cells/ml for 50,000 cells in 50 μl/well in RPMI media with 2% FBS. Cells were plated using a multichannel pipette onto the compound dilutions in Greiner, 384 well, black clear bottom tissue culture treated plates (781090). The plates were incubated in 37° C. incubator at 5% CO2 for 2 hours.
After the 2 hour incubation, the cell plates were spun in the centrifuge for 5 minutes at 1200 rpm. Using the Felix (CyBio), 8 μl of the supernatant was transferred to 384 well, low volume, white proxy plates. (Perkin Elmer, 6008230). A human IL1beta hTRF kit was used to analyze the supernatant (CISBIO, 62HIL1BPEG). The kit instructions were followed for preparing the IL1Beta standard curve and then the antibodies from the kit were diluted 1:40 rather than 1:20 as kit instructed. Once combined, the antibodies were added across the plates, 5 μl/well. The plates were sealed and incubated at 4° C. overnight. The plates were then read on the Perkin Elmer EnVision at 665/615 nm using the hTRF laser.

[3] = target: T2, TLR8 (Homo sapiens, UniProt Q9NR97); experiment: In vitro human TLR8 binding reporter assay (HEK-Blue, NF-kB/AP1-inducible SEAP); type: cell-based; details: read-out: TLR8 Agonist EC50
T2 construct: human HEK-Blue cells co-expressing a TLR7 or TLR8 gene
T2 sequence (Q9NR97 27-1041): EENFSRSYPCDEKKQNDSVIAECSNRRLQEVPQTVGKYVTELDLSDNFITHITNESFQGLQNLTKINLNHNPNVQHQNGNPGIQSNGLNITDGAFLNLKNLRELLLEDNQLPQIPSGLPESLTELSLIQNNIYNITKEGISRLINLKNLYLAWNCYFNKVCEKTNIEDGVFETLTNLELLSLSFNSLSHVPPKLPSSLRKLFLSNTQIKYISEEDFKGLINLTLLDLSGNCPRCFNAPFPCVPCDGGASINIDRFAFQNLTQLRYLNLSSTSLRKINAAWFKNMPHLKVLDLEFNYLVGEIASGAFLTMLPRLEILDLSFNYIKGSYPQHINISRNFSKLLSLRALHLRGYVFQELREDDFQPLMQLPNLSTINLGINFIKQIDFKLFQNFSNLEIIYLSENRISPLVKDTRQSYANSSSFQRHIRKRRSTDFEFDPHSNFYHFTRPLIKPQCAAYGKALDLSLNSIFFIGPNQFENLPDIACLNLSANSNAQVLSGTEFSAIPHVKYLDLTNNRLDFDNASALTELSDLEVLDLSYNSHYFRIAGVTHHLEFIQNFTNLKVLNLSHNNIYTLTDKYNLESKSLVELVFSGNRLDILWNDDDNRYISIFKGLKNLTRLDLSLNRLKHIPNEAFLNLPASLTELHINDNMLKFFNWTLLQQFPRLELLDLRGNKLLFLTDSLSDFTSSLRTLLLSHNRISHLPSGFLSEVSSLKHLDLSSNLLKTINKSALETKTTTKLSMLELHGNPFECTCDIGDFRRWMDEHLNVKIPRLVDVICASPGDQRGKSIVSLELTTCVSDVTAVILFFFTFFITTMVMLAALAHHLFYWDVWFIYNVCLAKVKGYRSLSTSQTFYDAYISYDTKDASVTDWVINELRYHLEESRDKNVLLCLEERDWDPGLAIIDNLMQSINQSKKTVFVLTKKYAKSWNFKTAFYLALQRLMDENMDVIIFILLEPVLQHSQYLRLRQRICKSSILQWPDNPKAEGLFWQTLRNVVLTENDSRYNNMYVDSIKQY
Protocol: as §1, §2

[4] = Homo sapiens, THP-1, IL-1β production, human
[5] = Homo sapiens, THP-1, IL-1β production, human cells

| SMILES | pEC50 ([1]; activity range class) | pEC50 [2, 4] | pEC50 ([3]; activity range class) | pEC50 ([2]; IL-1β production, human) | pEC50 ([1]; activity range) | pEC50 [2, 5] | pEC50 ([3]; activity range) |
| --- | --- | --- | --- | --- | --- | --- | --- |
| CC(Cn1cc2c(N)nc3cc(-c4ccn[nH]4)ccc3c2n1)NC(=O)C(C)(C)F (centres unmarked) [Example 273] | < 4.00 | 5.29 | < 4.00 | – | – | – | – |
| Nc1nc2cc(-c3cc[nH]n3)ccc2c2cn(CCNCc3cccnc3)nc12 [Example 110] | 4.00 to 4.70 | 4.88 | 4.70 to 6.00 | – | – | – | – |
| CC(=O)NC(C)Cn1cc2c(N)nc3cc(-c4ccn[nH]4)ccc3c2n1 (single isomer, unassigned) [Example 300] | < 4.00 | – | < 4.00 | 5.13 | – | – | – |
| Cc1ccc(C(=O)NCCn2cc3c(n2)c(N)nc2cc(-c4cc[nH]n4)ccc23)nc1 [Example 94] | < 4.00 | 6.68 | 4.00 to 4.70 | – | – | – | – |
| Nc1nc2cc(-c3cc[nH]n3)ccc2c2cn(CCNC(=O)c3ccncc3)nc12 [Example 37] | < 4.00 | 6.02 | < 4.00 | – | – | – | – |
| Nc1nc2cc(-n3cccn3)ccc2c2nn(CCc3c[nH]cn3)cc12 [Example 391] | < 4.00 | 6.70 | < 4.00 | – | – | – | – |
| Cn1cnc2c(C(=O)NCCn3cc4c(n3)c(N)nc3cc(-c5cc[nH]n5)ccc34)cccc21 [Example 100] | < 4.00 | 5.78 | < 4.00 | – | – | – | – |
| Nc1nc2cc(-c3cc[nH]n3)ccc2c2cn(CC(=O)N[C@@H]3CCOC3)nc12 [Example 533] | – | – | – | – | < 4.00 | 5.64 | < 4.00 |
| NC(=O)CCn1cc2c(N)nc3cc(-n4cccn4)ccc3c2n1 [Example 558] | – | – | – | – | < 4.00 | 6.20 | < 4.00 |
| Nc1nc2cc(-c3cc[nH]n3)ccc2c2nn(CC(O)C(F)(F)F)cc12 (centres unmarked) [Example 245] | < 4.00 | 6.03 | < 4.00 | – | – | – | – |
| Cn1cnc(C(=O)NCCc2cc3c(N)nc4cc(-c5cc[nH]n5)ccc4c3[nH]2)c1 [Example 518] | – | – | – | – | < 4.00 | 6.28 | < 4.00 |
| CC(C)(Cn1cc2c(N)nc3cc(-c4ccn[nH]4)ccc3c2n1)C(=O)NCc1cccnc1 [Example 601] | – | – | – | – | < 4.00 | 4.49 | < 4.00 |
| CC(C)(F)C(=O)NCCn1cc2c(N)nc3cc(-c4cc[nH]n4)ccc3c2n1 [Example 203] | < 4.00 | 5.46 | < 4.00 | – | – | – | – |
| CC(Cn1cc2c(N)nc3cc(-n4cccn4)ccc3c2n1)NC(=O)C(C)(C)F (centres unmarked) [Example 431] | – | – | – | – | < 4.00 | 5.91 | < 4.00 |
| CC(Cn1ncc2c(N)nc3cc(-c4cc[nH]n4)ccc3c21)NS(C)(=O)=O (centres unmarked) [Example 302] | < 4.00 | 5.46 | < 4.00 | – | – | – | – |
| Nc1nc2cc(-c3ccn[nH]3)ccc2c2oc(CCCOCc3ccccc3)nc12 [Example 146, 2-[3-(benzyloxy)propyl]-7-(1H-pyrazol-3-yl)-[1,3]oxazolo[4,5-c]quinolin-4-amine] | – | 5.10 | – | – | – | – | – |
| Nc1nc2cc(-n3cccn3)ccc2c2cn(CCNC(=O)c3ccc(F)cn3)nc12 [Example 184] | < 4.00 | 7.00 | – | – | – | – | – |

The remaining lines, values ahead:

| pEC50 ([1]; activity range class) | pEC50 [2, 4] | pEC50 ([3]; activity range class) | pEC50 ([2]; IL-1β production, human) | pEC50 ([1]; activity range) | pEC50 [2, 5] | pEC50 ([3]; activity range) | SMILES |
| --- | --- | --- | --- | --- | --- | --- | --- |
| < 4.00 | 4.93 | < 4.00 | – | – | – | – | CC(=O)NCCn1cc2c(n1)c(N)nc1cc(-c3cc[nH]n3)ccc12 [Example 33] |
| 4.00 to 4.70 | 6.85 | 4.00 to 4.70 | – | – | – | – | Nc1nc2cc(-c3cc[nH]n3)ccc2c2cn(CCNC(=O)c3ccc(Cl)cn3)nc12 [Example 72] |
| – | – | – | – | < 4.00 | 6.17 | < 4.00 | C[C@H](Cn1cc2c(n1)c(N)nc1cc(-c3cc[nH]n3)ccc12)NS(C)(=O)=O [Example 530] |
| < 4.00 | 5.65 | < 4.00 | – | – | – | – | Nc1nc2cc(-c3cc[nH]n3)ccc2c2cn(CCNC(=O)[C@H]3CCCO3)nc12 [Example 177] |
| < 4.00 | 6.34 | < 4.00 | – | – | – | – | Nc1nc2cc(-c3cc[nH]n3)ccc2c2nn(C3COC3)cc12 [Example 241] |
| – | – | – | – | < 4.00 | 5.56 | < 4.00 | Nc1nc2cc(-c3cc[nH]n3)ccc2c2c1cnn2CCN1CCOCC1 [Example 436] |
| < 4.00 | 5.19 | < 4.00 | – | – | – | – | Nc1nc2cc(-c3cc[nH]n3)ccc2c2cn(CCNC(=O)CC(F)(F)F)nc12 [Example 181] |
| < 4.00 | 5.99 | < 4.00 | – | – | – | – | Cn1cnc(C(=O)NCCn2cc3c(n2)c(N)nc2cc(-c4cc[nH]n4)ccc23)c1 [Example 87] |
| – | 5.69 | – | – | – | – | – | Nc1nc2cc(-c3cc[nH]n3)ccc2c2cc(CCCO)oc12 [Example 148, 3-[4-amino-7-(1H-pyrazol-3-yl)furo[2,3-c]quinolin-2-yl]propan-1-ol] |
| – | 5.42 | – | – | – | – | – | NCCc1cc2c(N)nc3cc(-c4ccn[nH]4)ccc3c2[nH]1 [Example 152, 2-(2-aminoethyl)-7-(1H-pyrazol-5-yl)-1H-pyrrolo[3,2-c]quinolin-4-amine] |
